Data: ChEMBL document CHEMBL5724709, “EUbOPEN Chemogenomics Library - IncuCyte” (2024)

Experiments:
Format in all cases: toxicity, cell-based
[1] = test system: HEK-293T; assay: Incucyte cell viability with HEK293T; conditions: human, 24 h, 10 µM, compound concentration 10 uM
[2] = test system: Fibroblast; assay: Incucyte cell viability with human fibroblast; conditions: 24 h, 10 µM, compound concentration 10 uM
[3] = test system: U2OS; assay: Incucyte cell viability with U2OS; conditions: human, 24 h, 10 µM, compound concentration 10 uM
Further: unitless GR value; below 1 slowed growth and below 0 cell loss.

Row | Structure (SMILES) | Growth Rate ([1]; replicate number 1) | Growth Rate ([1]; replicate number 2) | Growth Rate ([2]; replicate number 1) | Growth Rate ([2]; replicate number 2) | Growth Rate ([3]; replicate number 1) | Growth Rate ([3]; replicate number 2)
1 | CC(=O)N[C@@H](Cc1ccc(O)cc1)C(=O)N[C@H](C(=O)N[C@@H](C)C(=O)N[C@@H](CC(=O)O)C(=O)COC(=O)c1c(C)cccc1C)C(C)C | 0.9 | 0.84 | 0.47 | 0.72 | 1 | –
2 | COc1cc(C(C)C)c2c(c1)S(=O)(=O)N(COc1cc(=O)n3cccc(OCCN4CCCCC4)c3n1)C2=O | -0.22 | -0.01 | -0.1 | -0.7 | 0.9 | 1
3 | COc1ccccc1C(=O)Nc1cc2c(cc1N1CCCCC1)n(C)c(=O)n2C | 0.58 | 0.99 | 1 | – | 1 | –
4 | N[C@@H](CC(=O)N1CCN(C(c2ccc(F)cc2)c2ccc(F)cc2)CC1)C(=O)N1Cc2ccccc2C1 | 0.66 | 0.87 | 1 | – | 1 | –
5 | COc1cc2c(NC3CCN(C4CCCCC4)CC3)nc(N3CCCN(C(C)C)CC3)nc2cc1OCCCN1CCCCC1 | -0.52 | -0.39 | 0.42 | 0.22 | -0.09 | 0.29
6 | N#C[C@@H]1CCCN1C(=O)[C@@H]1CCCN1C(=O)CCCc1ccccc1 | 0.6 | 0.93 | 1 | – | 1 | 0.94
7 | CC(=O)OCCN1C(=O)c2c(C)nc3ccc(S(=O)(=O)N4CCOCC4)cc3c2C1=O | 0.92 | 1 | 0.85 | 1 | 0.83 | 1
8 | CC(C)[C@H](NC(=O)OCc1ccccc1)C(=O)NC(CC(=O)O)C(=O)CF (stereo partly drawn) | 1 | 0.94 | 0.54 | 1 | 1 | 0.69
9 | CC(C)[C@@H]1C(=O)N(S(C)(=O)=O)[C@@H]2CCN(C(=O)/C=C/CN3CCCCC3)[C@H]21.Cl | 0.79 | 0.98 | 0.66 | 1 | 1 | 0.76
10 | C[C@H](NC(=O)[C@H](Cc1ccccc1)NC(=O)OCc1ccccc1)C(=O)CF | 0.53 | 0.77 | 1 | – | 0.43 | 0.93
11 | CCc1ccccc1NC(=O)CSC(=O)NNC(=O)[C@H](Cc1c[nH]c2ccccc12)NC(=O)OC(C)(C)C | 0.24 | 0.54 | 1 | – | 1 | –
12 | CC(C)C[C@@H](C=O)NC(=O)[C@@H](NS(=O)(=O)c1ccc(F)cc1)C(C)C | 0.64 | 0.92 | 0.96 | 1 | 0.76 | 1
13 | O=C(O)/C(S)=C/c1c[nH]c2ccc(F)cc12 | 0.73 | 0.83 | 0.7 | 1 | 0.49 | 1
14 | CNC(=O)O[C@H]1COc2ccc(N3CCN(C4COC4)CC3)cc2[C@@H]1NC(=O)c1ccc(F)cc1 | 0.89 | 0.97 | 1 | 0.67 | 1 | –
15 | O=C(O)/C(S)=C/c1ccc(I)cc1 | 0.71 | 0.86 | 1 | 0.47 | 1 | –
16 | CC(=O)N[C@@H](Cc1ccc(O)cc1)C(=O)N[C@H](C(=O)N[C@@H](C)C(=O)N[C@H](C=O)CC(=O)O)C(C)C | 0.6 | 0.86 | 0.86 | 0.09 | 0.78 | 0.63
17 | CN1CCN(c2nc(-c3ccc(C(=O)NC4(C(=O)NCC#N)CCCCC4)cc3)cs2)CC1 | 0.86 | 0.8 | 0.74 | 1 | 1 | –
18 | CC(C)(O)c1ccc(-c2nc3c(F)cc(F)cc3c(=O)[nH]2)cc1 | 0.45 | 1 | 0.13 | 0.87 | 0.23 | 1
19 | CCCNC(=O)[C@H]1O[C@@H]1C(=O)N[C@H](C(=O)N1CCC[C@H]1C(=O)O)[C@@H](C)CC | 0.63 | 0.84 | 0.65 | 1 | 1 | –
20 | NC(=O)c1cccc(NC(=O)CCC(=O)NCCc2cn(CCNS(=O)(=O)c3cccc(C(=O)O)c3)nn2)c1 | 0.69 | 0.77 | 0.46 | 1 | 0.49 | 1
21 | CNC[C@@H](O)COc1ccc(Cl)c(-c2nc(-c3c(C)noc3C)c(C)c(N3CC4(CCN(C(=O)OC)CC4)C3)n2)c1 | 0.46 | 0.73 | 0.24 | 1 | 1 | –
22 | CCC(NC(=O)C(CC(C)C)NC(=O)OCc1ccccc1)C(=O)C(=O)NCCCN1CCOCC1.O=C(O)C(F)(F)F (stereo not drawn) | 0.73 | 0.97 | 1 | – | 1 | –
23 | CC(=O)N[C@@H](CC(=O)O)C(=O)N[C@@H](CCC(=O)O)C(=O)N[C@H](C(=O)N[C@H](C=O)CC(=O)O)C(C)C.O=C(O)C(F)(F)F | 0.74 | 1 | 0.55 | 0.22 | 1 | –
24 | O=C1C(=O)N(Cc2ccccc2)c2ccc(S(=O)(=O)N3CCC[C@H]3COc3ccc(C(F)(F)F)cc3)cc21 | -0.25 | -0.13 | -0.08 | 0.99 | -0.63 | -0.25
25 | CC(=O)N[C@@H](CC(=O)O)C(=O)N[C@@H](CCC(=O)O)C(=O)N[C@H](C(=O)N[C@@H](CC(=O)O)C(=O)CCl)C(C)C.O=C(O)C(F)(F)F | 0.81 | 1 | 1 | 0.21 | 1 | –
26 | Cl.Cl.O=C(O)Cn1nnc(-c2ccc(CN(CCCCOc3ccc(CN4CCCC4)cc3)CCc3ccccc3)cc2)n1 | 0.53 | 0.89 | 0.66 | 1 | 1 | 0.91
27 | CC(=O)N[C@@H](Cc1ccc(O)cc1)C(=O)N[C@H](C(=O)N[C@@H](C)C(=O)N[C@@H](CC(=O)O)C(=O)CCl)C(C)C | 0.82 | 0.89 | 0.42 | 1 | 1 | –
28 | COC[C@@H]1CCCN1S(=O)(=O)c1ccc2c(c1)C(=O)C(=O)N2 | 0.88 | 1 | 0.45 | 0.8 | 1 | –
